Measurements taken from patent US9534008B2, “Small molecule compounds that control plant- and insect-pathogenic nematodes” (California Institute of Technology, priority 2011, dated 2017).
Entries after “also recorded” stand apart in the source; their conditions may differ.

How the values were obtained:
C. elegans [1] = details: in vivo; cited from earlier work
Panagrellus redivivus = assay: Ascaroside function (Table 12), Panagrellus redivivus; type: in vivo
How it was run: (§1)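 Individual ascarosides and ascaroside blends were given to the nematodes, and their effect on nematode behavior was scored. A very strong behavioral effect was rated "strong."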

C. elegans [2] = details: in vivo; cited from earlier work; remark: listed apart in the source
[3] = test system: C. elegans hermaphrodites and males; assay: Spot attraction assay; type: in vivo
Experimental: The spot attraction assays were conducted according to a previously reported method (Pungaliya et al., PNAS 106:7708-13 (2009); Srinivasan et al., Nature 454:1115-18 (2008), which are hereby incorporated by reference in their entirety). For both C. elegans hermaphrodites and males, 50-60 worms were harvested daily at the fourth larval stage (L4) and stored segregatedly by sex at 20° C. overnight, to be used as young adults the following day. For the competition experiments, two conditions were used: 120 nM ascr#3 and 10 nM icas#3 (Condition 1), or 12 μM ascr#3 and 1 μM icas#3 (Condition 2) in water containing 10% ethanol. Aliquots were stored at −20° C. in 20 μL tubes. 10% ethanol in water was used as control.
Attraction assays with hbas#3 were conducted as previously reported (Srinivasan et al., Nature 454:1115-18 (2008); Pungaliya et al., Proc. Natl. Acad. Sci. U.S.A. 106:7708-13 (2009), which are hereby incorporated by reference in their entirety). For the attraction assays, 50-60 hermaphrodite worms were harvested daily at the early fourth larval stage (L4) and stored at 20° C. overnight to be used as young adults the following day. Hbas#3 was dissolved in water containing 10% ethanol. Aliquots were stored at −20° C. in 20 μL tubes. 10% ethanol in water was used as control.

P. redivivus females = assay: Retention assay, P. redivivus females; details: in vivo
Experimental: OP50 E. coli was grown on a standard 5 cm agar plate (made with standard Nematode Growth Medium). The bacterial lawn was 16 mm in diameter and was grown overnight at 20° C. before being used in trials. Two 4 mm spots (0.6 μL) were placed on opposite sides of the bacterial lawn (using a transparent template to guide spot placement), and several minutes elapsed for the liquid to settle in before placing nematodes down on the assay. Recording began immediately upon worm placement. […]
Nematodes were isolated by gender at the L4 stage the day before being used in trials as developed adults. […] Trials were recorded for 20 minutes, and frames were collected for analysis at 1 frame per second. […]
A video camera attached to the microscope produced a digital video stream, which was then analyzed. The ratio of the time the average worm spent in each region of interest was calculated for every trial. […] Thus worm pixels were counted instead of whole worms, allowing fractions of a worm in the region of interest to be taken into account. It also eliminated the need for a shape-based worm identification algorithm, and allowed each frame to be analyzed independently. […] Thus, the ratio of worm-pixels to all pixels inside the region of interest can be calculated to produce the worm-occupancy ratio. […]

S. feltiae = assay: Ascaroside function (Table 12), S. feltiae; type: in vivo, Steinernema feltiae
Experimental: Various ascarosides and ascaroside blends were administered to various nematodes described below (Table 12). […] A very strong result of affecting nematode behavior is designated in the table as “strong.”

C. elegans [4] = assay: Aggregation assay; type: in vivo
Experimental: Aggregation behavior of worms was measured using assays reported in de Bono & Bargmann, Cell 94:679-89 (1998), which is hereby incorporated by reference in its entirety. Aggregation assays were conducted on standard NGM plates. Plates containing indole ascarosides were made by adding the indole ascaroside stock solution to the NGM media before they were poured onto the plates. These plates were dried at room temperature for 2 to 3 days. Control plates were treated similarly, except that ethanol solutions instead of icas solutions were added to the plates, corresponding to the amount of ethanol introduced via the icas solutions. Final ethanol concentrations of the plates were below 0.1% for all conditions. After drying, both control plates and plates containing indole ascarosides were seeded with 150 μl of an overnight culture of E. coli OP50 using a micropipette, and were allowed to dry for 2 days at room temperature. For “low worm density” experiments, 20 worms were placed onto the lawn and left at 20° C. for 3 hours. For “high worm density” experiments, approximately 120 worms were placed onto the bacterial lawn and left at 20° C. for 3 hours. Aggregation behavior was quantified as the number of animals that were in touch with two or more animals at greater than 50% of their body length.

C. elegans [5] = assay: Ascaroside function (Table 12), C. elegans; type: in vivo, Caenorhabditis elegans; parameters: key to Attract Females/Herm. / Promote Dauer Formation / Attract Males: A very strong result of affecting nematode behavior is designated in the table as “strong.”
How it was run: as §1

In the case of `C[C@H](CCC(=O)O)O[C@@H]1O[C@@H](C)[C@H](OC(=O)c2c[nH]c3ccccc23)C[C@H]1O` [icas#9], the “aggregation in C. elegans” value (C. elegans [1]) is listed as “aggregating stimulant”, the “Repel Females/Herm.” value (Panagrellus redivivus) is listed as “icas#9” and the dauer-inducing activity (C. elegans [2]) is listed as “moderate; also recorded: promote dauer entry”. The “shape of dauer response curve” value (C. elegans [2]) was “bell-shaped”, the “attraction of both C. elegans sexes” value ([3]; high concentrations, 1 μmol, N2 hermaphrodites and him-5 males) was “attractive; also recorded: attracted” and the attraction of males ([3]; low concentrations, males) was “but not males”. The “response of P. redivivus females” value (P. redivivus females) was “repealed”, the “Dispersal (of dauer larvae, infectious juveniles)” value (S. feltiae) was “icas#9” and the “active concentration window (hermaphrodite attraction and aggregation)” value (C. elegans [4]; in vivo) was “femtomolar to picomolar; also recorded: fM-pM”. The “aggregation of solitary and social hermaphrodites” value (C. elegans [4]; low worm density (20 worms per 5 cm plate)) was “increased aggregation”, the “Attract Females/Herm.” value (C. elegans [5]) was “([strong])” and the “Promote Dauer Formation” value (C. elegans [5]) was “icas#9”.
